# Results from paper PMC12856317, “A reversible feedback mechanism regulating mitochondrial heme synthesis” (The Journal of Biological Chemistry, 2025).
# Substitutions are numbered along the chain they refer to.
# How the values were obtained:
# [1] = biological target: T1, WT apoALAS2 (residues 54–587) (Homo sapiens, UniProt P22557); assay: Inhibitor competition, apoenzyme reactivation by PLP with or without hemin; type: biochemical; details: for Vmax / Km: PLP varied; for Km: 95% confidence interval in brackets
# T1 construct: His6-SUMO (N, cleaved yes); made in house; host or cells: Escherichia coli BL21-Codon Plus (DE3)-RIL
# T1 sequence (P22557 54-587): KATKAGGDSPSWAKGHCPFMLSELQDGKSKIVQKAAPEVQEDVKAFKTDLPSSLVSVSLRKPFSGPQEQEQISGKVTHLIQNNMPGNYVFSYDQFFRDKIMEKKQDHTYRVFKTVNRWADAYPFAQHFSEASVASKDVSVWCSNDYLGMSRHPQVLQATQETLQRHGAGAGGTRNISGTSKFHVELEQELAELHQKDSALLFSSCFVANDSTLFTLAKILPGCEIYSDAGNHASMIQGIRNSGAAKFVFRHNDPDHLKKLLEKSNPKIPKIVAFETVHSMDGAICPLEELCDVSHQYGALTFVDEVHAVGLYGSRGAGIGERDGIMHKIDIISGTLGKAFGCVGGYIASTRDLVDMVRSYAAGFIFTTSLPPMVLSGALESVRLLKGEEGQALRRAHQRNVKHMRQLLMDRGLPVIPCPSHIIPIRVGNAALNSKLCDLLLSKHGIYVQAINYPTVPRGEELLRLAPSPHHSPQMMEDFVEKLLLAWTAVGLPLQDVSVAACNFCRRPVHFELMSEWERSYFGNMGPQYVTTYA
# Protocol: (§1) A discontinuous colorimetric activity assay adapted from Shoolingin-Jordan et al. and Bailey et al. was used to measure the enzyme activity ([48], [74]). The reaction was initiated by adding 100 nM purified enzyme to 50 mM potassium phosphate, pH 7.0, 10 mM MgCl2, 1 mM DTT, 100 mM glycine, and 300 μM succinyl-CoA (175 μl total). The reaction was incubated at 37 °C for 15 min and terminated with 100 μl of cold 10% trichloroacetic acid. The precipitated protein was removed by centrifugation for 5 min at 13,000g, and 240 μl of the supernatant was mixed with 240 μl of 1 M sodium acetate, pH 4.6. To derivatize ALA, 20 μl of acetylacetone was added to the mixture and boiled at 100 °C for 10 min. After the sample was cooled for 20 min, 100 μl aliquots were transferred into a clear 96-well plate in triplicate. An equal volume of Ehrlich’s reagent (p-Dimethylaminobenzaldehyde, DMAB) was added to each well, and the absorbance was monitored at 553 nm using a microplate reader (Thermo Fisher Scientific). The peak absorbance value was converted to molar ALA concentration using ε553 = 60,400 M^−1 cm^−1.
# (§2) For inhibitor competition experiments, the apoenzymes were preincubated with hemin or PLP (0–100 μM) for 15 min at 25 °C in the dark before initiating the reaction. Next, either PLP or hemin (0–100 μM) was titrated into the reactions to measure enzyme activation after hemin inhibition or enzyme inhibition of the PLP-treated apoenzyme, respectively. For succinyl-CoA:hemin competition analyses, the WT holoenzyme was mixed with hemin (0, 25, 50, and 100 μM), followed by the addition of increasing succinyl-CoA concentrations (0, 25, 50, 100, 250, and 500 μM). All experiments were performed with a minimum of three biological replicates, each with three technical replicates. Data were fit using nonlinear regression to generate an agonist dose-response curve (EC50) or an inhibitor dose-response curve (IC50). Lineweaver-Burk analysis was performed using the resulting kinetic parameters (Vmax and KM) in GraphPad Prism 10.
# [2] = biological target: T2, WT holoALAS2 (residues 54–587) (Homo sapiens, UniProt P22557); assay: Succinyl-CoA:hemin competition analysis; type: biochemical; details: WT holoenzyme
# T2 construct: His6-SUMO (N, cleaved yes); made in house; host or cells: Escherichia coli BL21-Codon Plus (DE3)-RIL
# T2 sequence (P22557 54-587): T1 sequence (P22557 54-587)
# Protocol: as §1, §2
# [3] = biological target: T3, human ALAS2 Cys-mut (C70A/C555A/C558A) (Homo sapiens, UniProt P22557, C555A/C558A/C70A); assay: Isothermal titration calorimetry, hemin-protein interaction; type: binding; details: ITC, 25 °C
# T3 construct: Site-directed mutagenesis was performed on the mature ALAS2 (residues 54–587) construct to generate truncations and cysteine mutants; His6-SUMO (N, cleaved yes); made in house; host or cells: Escherichia coli BL21-Codon Plus (DE3)-RIL
# T3 sequence (P22557 54-587 C70A/C555A/C558A): T1 sequence (P22557 54-587) with C17A, C502A, C505A
# Protocol: Binding curves of the hemin-protein interaction were determined using Nano-ITC instrument (TA instruments) at 25 °C. Hemin was dissolved in 1 M NaOH and autoclaved to prepare a stock solution of 746 μM, ε385nm = 58,440 M^−1 cm^−1. The stock solution was diluted to 1.5 μM in titration buffer containing 25 mM Hepes, pH 7, 150 mM KCl, and 0.5 mM TCEP. Protein samples were dialyzed into the titration buffer and diluted to a final concentration of 40 μM. Fixed volumes of protein were injected at 200-s intervals into the cell containing hemin. An A + B hetero-association model was used to determine the thermodynamic parameters for each variant. Data were integrated and analyzed using NITPIC and SEDPHAT and visualized using GUSSI ([71], [72], [73]).
# [4] = 95% confidence interval in brackets
Compound,Vmax ([1]; hemin 0 μM),Km ([1]; hemin 0 μM),Vmax ([1]; hemin 10 μM),Km ([1]; hemin 10 μM),Vmax ([1]; hemin 25 μM),Km ([1]; hemin 25 μM),Vmax ([1]; hemin 50 μM),Km ([1]; hemin 50 μM),Vmax ([1]; hemin 100 μM),Km ([1]; hemin 100 μM),"activation constant (Ka) ([1]; WT apoALAS2, PLP titration in the absence of heme)","EC50 ([1]; WT apoALAS2, PLP titration in the presence of 50 μM hemin)","apoenzyme activity restored ([1]; WT apoenzyme preincubated with 50 μM heme, excess PLP)","mode of inhibition ([1]; WT apoenzyme, varied PLP, various heme concentrations up to 100-fold excess)","fold lower Vmax ([2]; heme versus no heme, varied succinyl-CoA)",mode of inhibition ([2]; varied succinyl-CoA and heme),ΔG [3],ΔS [3],"Kd [3, 4]","ΔH [3, 4]"
Cc1ncc(COP(=O)(O)O)c(C=O)c1O [PLP],"110.84 [123.30, 100.65] nmol/min/mg",0.86 µM,"91.16 [97.56, 85.54] nmol/min/mg",3.36 µM,"58.17 [67.25, 51.28] nmol/min/mg",4.78 µM,"45.96 [99.50, 29.88] nmol/min/mg",11.9 µM,"27.29 [41.39, 20.36] nmol/min/mg",9.82 µM,0.72 ± 0.08 µM,7 ± 1 µM,~50%,,,,,,,
ferric chloride heme [hemin],,,,,,,,,,,,,,mixed inhibitor,8 fold,uncompetitively,-8.48 kcal/mol,−1.18 kcal/mol K,0.61 µM,"−361 [−561, −280] kcal/mol"
